The text below walks through data of patent US20250195601A1, “TURMERIC OIL ESSENTIAL-OIL BISABOLENE SESQUITERPENOIDS IN THE TREATMENT OF NON-NEURODEGENERATIVE DISEASES” (UNIVERSIDAD DE CUENCA, priority 2023, published 2025).

Type in all cases: in vivo, human
Assay [1] deals with patient with Guillain-Barré syndrome, flaccid tetraplegia. Put plainly: Clinical course and muscle strength, Case 5. Conditions: after three weeks of hospitalization, before turmeric oil. The source says:
Patient. They were the child of non-consanguineous parents. Parents referred that one day the patient woke up but could not walk. Noteworthy, the day before this event, they received a COVID vaccine. The patient was taken to a hospital and evaluated in the emergency room. Demyelinating motor polyradiculoneuropathy of severe degree with distal predominance, more significant in lower extremities was reported after performing electromyography and nerve conduction velocity analysis. On the third day at the hospital, the patient lost walking, sitting, neck control and lower and upper extremities mobility. No mechanical ventilation was required.
Thus, the patient was prostrate, and it was recommended to start administering turmeric oil in a dose of 21.6 mg per day.

The test system of assay [2] is patient with executive functions impairment, epilepsy, mental retardation, attention deficit. Put plainly: Clinical course, Case 1. Conditions: before turmeric oil. The procedure: […], due to their academic failure and their refusal to continue taking methylphenidate, it was decided to start using turmeric oil in a dosage of 36 mg/day.
The turmeric oil and two anticonvulsants (valproic acid and clobazam) were administered to the patient.
Conversely, a cognitive enrichment in the patient's profile was evident. This enhancement was reflected in their academic performance and […] general life development. The patient presented seizures relapse and maintained antiepileptic drugs administration.

The test system of assay [3] is patient with mixed cerebral palsy, epilepsy, constipation, mental retardation. Put plainly: Clinical course, Case 4. Conditions: with baclofen, before turmeric oil. The text has this:
Patient. They were the child of non-consanguineous parents, born of a twin pregnancy by cesarean section at 30 weeks' gestation. The patient had multiple complications in their neonatal period with prolonged mechanical ventilation, including neuro-infection and neonatal seizures.
Central hypotonia and peripheral hypertonia, dystonia and dyskinesia, ROT++++/++, bilateral plantar flexor reflex were present.
No advances regarding […] neurological condition were identified. The pharmacological therapy included baclofen to improve muscle tone and levetiracetam to control seizures.
Scoliosis, retractions, and joint deformities were still visible. Dystonias and dyskinesias were persistent.
In the subsequent 7.5 years, the patient had epileptic seizures of irregular onset and insufficient advances in their motor development. Administration of turmeric oil began with a dose of 27 mg per day.

As to gamma globulin, the condition at discharge entry in assay [1] is “no improvement”. On to `COC(=O)C(c1ccccc1)C1CCCCN1` (stereo not drawn) [prolonged-release methylphenidate, methylphenidate], for which, in assay [2], the “result of methylphenidate treatment” value is recorded as “poor results”. As for `CC[C@@H](C(N)=O)N1CCCC1=O` [levetiracetam], the seizures entry in assay [3] is reported as “not controlled”.
